Among the data in patent US20240409530A1, “Disubstituted Pyrimidine Compounds for Ketohexokinase Inhibition” (Centennial Therapeutics, LLC, priority 2023, published 2024) are IC50 values, retold here.

SMILES strings stand for the structures.

Holding throughout (experiment): KHK inhibition assay, recombinant isozyme (coupled pyruvate kinase/LDH, NADH absorbance 340 nm)
Type in all cases: biochemical
Settings in all cases: recombinant isozyme 6 nM, fructose 2 mM, ATP 0.1 mM

The target in one assay is Human recombinant KHK-A (Homo sapiens (Human), UniProt P50053). As to the method:
(§1) Determination of Human and Rat recombinant KHK-A and KHK-C isozyme IC50 Values
(§2) An assay reagent cocktail was prepared by combining NADH, water, TEA, KCl, MgCl2, PEP, ATP, DTT, coupling enzymes (pyruvate kinase and lactate dehydrogenase, LDH) to final concentrations as shown in Table B.
(§3) To this was added the relevant KHK isozyme to a final concentration of 6 nM. Aliquots of each inhibitor compound were diluted via 5-fold serial dilutions to produce final concentrations ranging from 1000 nM to 0.064 nM. The inhibitor aliquots were added to the assay reagent cocktail containing KHK with fructose (at a concentration of 2 mM) in a 96-well plate. The absorbance at 340 nm was measured via spectrophotometry and inhibition was analyzed using non-linear regression.

The target of the next assay is Human recombinant KHK-C (Homo sapiens (Human), UniProt P50053). The protocol: as §1, §2, §3
Human recombinant KHK-C, sequence (P50053 whole entry): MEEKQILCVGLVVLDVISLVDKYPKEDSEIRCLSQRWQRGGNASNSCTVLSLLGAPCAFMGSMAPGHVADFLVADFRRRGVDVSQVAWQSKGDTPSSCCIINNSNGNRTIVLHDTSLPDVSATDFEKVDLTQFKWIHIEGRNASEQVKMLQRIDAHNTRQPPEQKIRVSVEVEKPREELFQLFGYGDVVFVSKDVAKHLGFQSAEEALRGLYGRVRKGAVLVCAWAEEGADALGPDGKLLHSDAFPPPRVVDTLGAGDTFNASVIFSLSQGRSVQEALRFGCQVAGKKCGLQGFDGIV
The next assay deals with Rat recombinant KHK-A (Rattus norvegicus (Rat), UniProt Q02974). The protocol: as §1, §2, §3
Rat recombinant KHK-A, sequence (Q02974 other isoform, or with tags, fused parts or gaps): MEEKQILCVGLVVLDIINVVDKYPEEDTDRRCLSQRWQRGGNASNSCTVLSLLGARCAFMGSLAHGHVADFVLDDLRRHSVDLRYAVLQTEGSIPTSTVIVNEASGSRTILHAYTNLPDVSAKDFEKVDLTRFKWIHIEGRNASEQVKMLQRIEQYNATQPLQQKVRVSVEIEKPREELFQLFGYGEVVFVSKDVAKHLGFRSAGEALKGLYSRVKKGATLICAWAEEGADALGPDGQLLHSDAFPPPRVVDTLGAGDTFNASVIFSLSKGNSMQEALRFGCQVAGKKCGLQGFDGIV
A further assay deals with Rat recombinant KHK-C (Rattus norvegicus (Rat), UniProt Q02974). The protocol: as §1, §2, §3
Rat recombinant KHK-C, sequence (Q02974 whole entry): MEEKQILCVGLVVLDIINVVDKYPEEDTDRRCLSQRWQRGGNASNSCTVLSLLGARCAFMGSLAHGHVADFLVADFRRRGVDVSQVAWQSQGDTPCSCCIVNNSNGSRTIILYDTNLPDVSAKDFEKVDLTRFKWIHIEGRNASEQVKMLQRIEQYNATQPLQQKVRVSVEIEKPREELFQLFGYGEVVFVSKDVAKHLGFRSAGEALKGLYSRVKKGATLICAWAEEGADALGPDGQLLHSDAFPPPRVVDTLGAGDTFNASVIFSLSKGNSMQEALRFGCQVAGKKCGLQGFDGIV

Human recombinant KHK-A, sequence (P50053 other isoform, or with tags, fused parts or gaps): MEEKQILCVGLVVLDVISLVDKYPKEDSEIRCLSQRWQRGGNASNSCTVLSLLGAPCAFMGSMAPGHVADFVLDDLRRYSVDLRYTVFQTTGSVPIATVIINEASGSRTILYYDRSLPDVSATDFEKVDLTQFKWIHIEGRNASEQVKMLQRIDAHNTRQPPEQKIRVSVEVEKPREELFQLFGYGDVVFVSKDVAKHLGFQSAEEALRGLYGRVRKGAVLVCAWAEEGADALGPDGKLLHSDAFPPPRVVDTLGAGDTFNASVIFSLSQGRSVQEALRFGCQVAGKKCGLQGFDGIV

Usually IC50 stands for the concentration that gives 50% inhibition. In the case of `COc1c(-c2cnn(C3CN(C)C3)c2)nc(N2C[C@@H](O)[C@@H]2C)nc1C(F)(F)F` [Compound A8, (2S,3R)-1-{5-methoxy-4-[1-(1-methyl-3-azetidinyl)-4-pyrazolyl]-6-(trifluoromethyl)-2-pyrimidinyl}-2-methyl-3-azetidinol], the IC50 at Human recombinant KHK-A worked out at 7.8 nM; at Human recombinant KHK-C, 6.46 nM; at Rat recombinant KHK-A, 5.5 nM; on Rat recombinant KHK-C, 16 nM.

`O=C(Cn1cc(-c2nc(N3CC[C@@H]3C(F)(F)F)nc(C(F)(F)F)c2Cl)cn1)N1CCNCC1` [Compound A29, 2-(4-{2-[(R)-2-(trifluoromethyl)-1-azetidinyl]-5-chloro-6-(trifluoromethyl)-4-pyrimidinyl}-1-pyrazolyl)-1-(1-piperazinyl)-1-ethanone]: the IC50 at Human recombinant KHK-C worked out at 5.03 nM.

`O[C@@H]1CN(c2nc(-c3cnn(C4CNC4)c3)cc(C(F)(F)F)n2)[C@H]1C(F)(F)F` (racemic) [Compound A31, (2R,3R)-1-{4-[1-(3-azetidinyl)-4-pyrazolyl]-6-(trifluoromethyl)-2-pyrimidinyl}-2-(trifluoromethyl)-3-azetidinol]: at Human recombinant KHK-C, the IC50 turned out to be 16.8 nM.

`C[C@H]1CCN1c1nc(-c2cnn(CC(=O)N3CCNCC3)c2)c(Cl)c(C(F)(F)F)n1` [Compound A4, 2-(4-{2-[(S)-2-methyl-1-azetidinyl]-5-chloro-6-(trifluoromethyl)-4-pyrimidinyl}-1-pyrazolyl)-1-(1-piperazinyl)-1-ethanone]: the IC50 at Human recombinant KHK-A came to 1.8 nM; at Human recombinant KHK-C, 5.94 nM; at Rat recombinant KHK-A, 1.3 nM; on Rat recombinant KHK-C it was 4.9 nM.

As to `COc1c(-c2cnn(CC(=O)N3CCNCC3)c2)nc(N2CC[C@@H]2C(F)(F)F)nc1C(F)(F)F` [Compound A28, 2-(4-{2-[(R)-2-(trifluoromethyl)-1-azetidinyl]-5-methoxy-6-(trifluoromethyl)-4-pyrimidinyl}-1-pyrazolyl)-1-(1-piperazinyl)-1-ethanone], the IC50 on Human recombinant KHK-A is 15 nM; at Human recombinant KHK-C, 18 nM; at Rat recombinant KHK-A it was 4.1 nM; on Rat recombinant KHK-C, 20 nM.

On to `C[C@H]1[C@H](O)CN1c1nc(-c2cnn(C3CN(C)C3)c2)c(Cl)c(C(F)(F)F)n1` [Compound A10, (2S,3R)-1-{5-chloro-4-[1-(1-methyl-3-azetidinyl)-4-pyrazolyl]-6-(trifluoromethyl)-2-pyrimidinyl}-2-methyl-3-azetidinol], for which the IC50 at Human recombinant KHK-A was 0.2 nM; on Human recombinant KHK-C it was 0.856 nM; at Rat recombinant KHK-A, 0.2 nM; at Rat recombinant KHK-C it was 1.1 nM.

In the case of `COc1c(-c2cnn(CC(=O)N3CCNCC3)c2)nc(N2CC[C@@H]2C(F)F)nc1C(F)(F)F` [Compound A36, 2-(4-{2-[(R)-2-(difluoromethyl)-1-azetidinyl]-5-methoxy-6-(trifluoromethyl)-4-pyrimidinyl}-1-pyrazolyl)-1-(1-piperazinyl)-1-ethanone], the concentration for half-maximal inhibition (IC50) at Human recombinant KHK-C came out at 36.6 nM.

For `COc1c(-c2cnn(CC(=O)N3CCNCC3)c2)nc(N2CC[C@@H]2C)nc1C(F)F` [Compound A23, 2-(4-{2-[(S)-2-methyl-1-azetidinyl]-6-(difluoromethyl)-5-methoxy-4-pyrimidinyl}-1-pyrazolyl)-1-(1-piperazinyl)-1-ethanone], the IC50 on Human recombinant KHK-C came to 54.6 nM.

`COc1c(-c2cnn(CC(=O)N3CCNCC3)c2)nc(N2CC[C@@H]2C)nc1C(F)(F)F` [Compound A5, 2-(4-{2-[(S)-2-methyl-1-azetidinyl]-5-methoxy-6-(trifluoromethyl)-4-pyrimidinyl}-1-pyrazolyl)-1-(1-piperazinyl)-1-ethanone]: the IC50 on Human recombinant KHK-A came out at 69 nM; at Human recombinant KHK-C it was 30.6 nM; on Rat recombinant KHK-A, 26 nM; at Rat recombinant KHK-C, 44 nM.

For `C[C@H]1[C@H](O)CN1c1nc(-c2cnn(C3CN(C)C3)c2)c(C2CC2)c(C(F)(F)F)n1` [Compound A34, (2S,3R)-1-{5-cyclopropyl-4-[1-(1-methyl-3-azetidinyl)-4-pyrazolyl]-6-(trifluoromethyl)-2-pyrimidinyl}-2-methyl-3-azetidinol], the half-maximal inhibitory concentration (IC50) at Human recombinant KHK-C turned out to be 25.4 nM.

In the case of `O=C(Cn1cc(-c2cc(C(F)F)nc(N3CC[C@@H]3C(F)(F)F)n2)cn1)N1CCNCC1` [Compound A20, 2-(4-{2-[(R)-2-(trifluoromethyl)-1-azetidinyl]-6-(difluoromethyl)-4-pyrimidinyl}-1-pyrazolyl)-1-(1-piperazinyl)-1-ethanone], the IC50 at Human recombinant KHK-C was 133 nM.

`C[C@H]1CCN1c1nc(-c2cnn(CC(=O)N3CCNCC3)c2)c(F)c(C(F)(F)F)n1` [Compound A32, 2-(4-{2-[(S)-2-methyl-1-azetidinyl]-5-fluoro-6-(trifluoromethyl)-4-pyrimidinyl}-1-pyrazolyl)-1-(1-piperazinyl)-1-ethanone]: the IC50 stood at 12 nM at Human recombinant KHK-A, 23.2 nM on Human recombinant KHK-C, 8.2 nM on Rat recombinant KHK-A and 20 nM on Rat recombinant KHK-C.

For the compound `CCc1c(-c2cnn(CC(=O)N3CCNCC3)c2)nc(N2CC[C@@H]2C(F)F)nc1C(F)(F)F` [Compound A41, 2-(4-{2-[(R)-2-(difluoromethyl)-1-azetidinyl]-5-ethyl-6-(trifluoromethyl)-4-pyrimidinyl}-1-pyrazolyl)-1-(1-piperazinyl)-1-ethanone], at Human recombinant KHK-C, the IC50 is 17.1 nM.

Consider `CN1CC(n2cc(-c3cc(C(F)(F)F)nc(N4C[C@@H](O)[C@@H]4C(F)(F)F)n3)cn2)C1` (racemic) [Compound A25, (2R,3R)-1-{4-[1-(1-methyl-3-azetidinyl)-4-pyrazolyl]-6-(trifluoromethyl)-2-pyrimidinyl}-2-(trifluoromethyl)-3-azetidinol], for which the IC50 on Human recombinant KHK-A turned out to be 2.2 nM; at Human recombinant KHK-C, 5.22 nM; on Rat recombinant KHK-A, 5.7 nM; at Rat recombinant KHK-C, 15 nM.

Turning to `O=C(Cn1cc(-c2nc(N3CC[C@@H]3C(F)F)nc(C(F)F)c2F)cn1)N1CCNCC1` [Compound A39, 2-(4-{2-[(R)-2-(difluoromethyl)-1-azetidinyl]-6-(difluoromethyl)-5-fluoro-4-pyrimidinyl}-1-pyrazolyl)-1-(1-piperazinyl)-1-ethanone], the IC50 at Human recombinant KHK-C is 110 nM.

With `O=C(Cn1cc(-c2nc(N3CC[C@@H]3C(F)F)nc(C(F)F)c2C2CC2)cn1)N1CCNCC1` [Compound A13, 2-(4-{2-[(R)-2-(difluoromethyl)-1-azetidinyl]-5-cyclopropyl-6-(difluoromethyl)-4-pyrimidinyl}-1-pyrazolyl)-1-(1-piperazinyl)-1-ethanone], the IC50 on Human recombinant KHK-C was 41.1 nM.

As for `C[C@H]1CCN1c1nc(-c2cnn(CC(=O)N3CCNCC3)c2)c(F)c(C(F)F)n1` [Compound A22, 2-(4-{2-[(S)-2-methyl-1-azetidinyl]-6-(difluoromethyl)-5-fluoro-4-pyrimidinyl}-1-pyrazolyl)-1-(1-piperazinyl)-1-ethanone], the IC50 on Human recombinant KHK-C turned out to be 65.8 nM.

For the compound `O=C(Cn1cc(-c2cc(C(F)F)nc(N3CC[C@@H]3C(F)F)n2)cn1)N1CCNCC1` [Compound A14, 2-(4-{2-[(R)-2-(difluoromethyl)-1-azetidinyl]-6-(difluoromethyl)-4-pyrimidinyl}-1-pyrazolyl)-1-(1-piperazinyl)-1-ethanone], the IC50 at Human recombinant KHK-C was 318 nM.

Turning to `CCc1c(-c2cnn(CC(=O)N3CCNCC3)c2)nc(N2CC[C@@H]2C(F)F)nc1C(F)F` [Compound A40, 2-(4-{2-[(R)-2-(difluoromethyl)-1-azetidinyl]-6-(difluoromethyl)-5-ethyl-4-pyrimidinyl}-1-pyrazolyl)-1-(1-piperazinyl)-1-ethanone], the 50% inhibitory concentration (IC50) on Human recombinant KHK-C was found to be 33.2 nM.

Regarding `C[C@H]1CCN1c1nc(-c2cnn(CC(=O)N3CCNCC3)c2)c(C2CC2)c(C(F)(F)F)n1` [Compound A30, 2-(4-{2-[(S)-2-methyl-1-azetidinyl]-5-cyclopropyl-6-(trifluoromethyl)-4-pyrimidinyl}-1-pyrazolyl)-1-(1-piperazinyl)-1-ethanone], the IC50 at Human recombinant KHK-C turned out to be 41.3 nM.

For the compound `COc1c(-c2cnn(CC(=O)N3CCNCC3)c2)nc(N2CC[C@@H]2C(F)(F)F)nc1C(F)F` [Compound A15, 2-(4-{2-[(R)-2-(trifluoromethyl)-1-azetidinyl]-6-(difluoromethyl)-5-methoxy-4-pyrimidinyl}-1-pyrazolyl)-1-(1-piperazinyl)-1-ethanone], the IC50 on Human recombinant KHK-C amounted to 32.7 nM.

In the case of `O=C(Cn1cc(-c2nc(N3CC[C@@H]3C(F)F)nc(C(F)(F)F)c2F)cn1)N1CCNCC1` [Compound A16, 2-(4-{2-[(R)-2-(difluoromethyl)-1-azetidinyl]-5-fluoro-6-(trifluoromethyl)-4-pyrimidinyl}-1-pyrazolyl)-1-(1-piperazinyl)-1-ethanone], the IC50 on Human recombinant KHK-C is 47.8 nM.

In the case of `COc1c(-c2cnn(CC(=O)N3CCNCC3)c2)nc(N2CC[C@@H]2C(F)F)nc1C(F)F` [Compound A44, 2-(4-{2-[(R)-2-(difluoromethyl)-1-azetidinyl]-6-(difluoromethyl)-5-methoxy-4-pyrimidinyl}-1-pyrazolyl)-1-(1-piperazinyl)-1-ethanone], the IC50 at Human recombinant KHK-C amounted to 61 nM.

Regarding `O=C(Cn1cc(-c2nc(N3CC[C@@H]3C(F)F)nc(C(F)(F)F)c2C2CC2)cn1)N1CCNCC1` [Compound A17, 2-(4-{2-[(R)-2-(difluoromethyl)-1-azetidinyl]-5-cyclopropyl-6-(trifluoromethyl)-4-pyrimidinyl}-1-pyrazolyl)-1-(1-piperazinyl)-1-ethanone], the IC50 at Human recombinant KHK-C came to 74.9 nM.

In the case of `O=C(Cn1cc(-c2nc(N3CC[C@@H]3C(F)F)nc(C(F)F)c2Cl)cn1)N1CCNCC1` [Compound A37, 2-(4-{2-[(R)-2-(difluoromethyl)-1-azetidinyl]-5-chloro-6-(difluoromethyl)-4-pyrimidinyl}-1-pyrazolyl)-1-(1-piperazinyl)-1-ethanone], on Human recombinant KHK-C, the IC50 is 11.9 nM.
